The conditions of data set [1]: human body; cited from earlier work.
In data set [2] the test system is PI3K/Akt/mTOR signaling pathway protein. Briefly: Western blot of PI3K/Akt/mTOR pathway proteins in A549 cells (Test Example 2). In kind it is cell-based, human. Conditions: 24 h; for activation of PI3K protein, 4EBP1 protein, mTOR protein / expression of Akt protein and S6K1 protein and of their activated proteins: Western blot. The procedure: A549 cells were purchased from American Type Culture Collection (ATCC, Manassas, Va., USA). The cells were cultured in a DMEM medium containing 10% fetal bovine serum, 2% glutamine and penicillin (100 U/ml) in an incubator at 37° C. with 5% CO2. The cells used in the experiment were all cells in logarithmic phase.
A549 was an adherent cell, cells in logarithmic growth phase was selected as the experimental group.
1) 60-100 μl of lysate was added to each tube of cells, and was subjected to ice bath in a refrigerator at 4° C. for 1 h; the solution was centrifuged for 10-15 min at 12,000 r/min, the supernatant was suck out to a 0.5 ml EP tube; after the quantitative protein was measured with Bio-Rad, 5× loading buffers were added, and the solution was subjected to boiling water bath for 3-5 min and then was cryopreserved at −80° C.
2) 15%, 12% or 10% acrylamide separation gel was prepared according to Tab. 2-1, and was then mixed with various ingredients successively; once TEMED and AP were added, the mixture was quickly rotated and poured between the two glass plates of the electrophoresis tank, leaving the space required for pouring the stacking gel.
The separation gel was covered with a layer of isopropyl alcohol, and the gel was placed vertically at room temperature for about 30 min.
3) After the separation gel was completely polymerized, the isopropyl alcohol was removed, and the gel was washed with deionized water for 10 times; water was absorbed with filter paper, a stacking gel was prepared according to Tab.2-2, and a clean sample comb was immediately inserted after adding the stacking gel into electrophoresis tank.
4) After the stacking gel was completely polymerized, the electrophoresis instrument was filled with 1×electrophoretic buffer solution, samples were added into sample holes according to a predetermined sequence to start electrophoresis, the voltage was 50-60V when the samples were located at the stacking gel, and the voltage was adjusted to 100-140V when the samples swam to the separation gel.
1) After the SDS polyacrylamide gel electrophoresis was completed, the gel was placed in the transfer buffer and soaked for 30 min. 8 pieces of Whatman 3 MM filter paper and 1 piece of nitrocellulose membrane were cut out, which were consistent with the size of the gel. The nitrocellulose membrane was immersed in methanol for 1 min, and the nitrocellulose membrane was immersed in deionized water to remove air bubbles.
2) The gel was stacked into a “sandwich” shape and inserted into the transfer cell. The gel was connected to the cathode on one side, 100 mA for 3 h.
3) The transferred nitrocellulose membrane entered the Ponceau S staining solution for 5-10 min, and was shaken gently during the period. After the protein band appeared, it was rinsed with deionized water several times, and the position of the standard protein molecular weight was marked with waterproof ink.
4) The membrane was placed in a petri dish with a blocking solution and blocked for 2 h.
5) The blocking solution containing a first antibody was added at 0.1 ml/cm^2 and stayed overnight at 4° C. (dilution multiples of various antibodies are as shown in Tab 0.2-2)
6) The first antibody was recovered, the membrane was rinsed with PBST 3 times for 10 min each time, and was then transferred to a solution containing 150 mM NaCl and 50 mM Tris-HCl (pH 7.5) and shaken for 10 min.
7) A phosphate-free and sodium azide-free blocking solution containing a second antibody was added at 0.1 ml/cm2, wherein the second antibody labeled with horseradish peroxidase was diluted 1,000 times.
8) It was rinsed with 150 mM NaCl and 50 mmol/L Tris-HCl (pH 7.5) solution for 3 times for 10 min each time. Color development was carried out in a dark room with an ECL kit, and pictures were scanned and saved. […]

Data set [3] has as its system mouse liver cancer cells H22. The experiment in a line: in vivo tumor growth inhibition.
The subject of data set [4] is non-small cell lung cancer cells A549. Briefly: in vivo tumor growth inhibition.

Turning to spiramycin, the absolute oral bioavailability in data set [1] is 30-40%.

Regarding `CO[C@@H]1[C@@H](O[C@@H]2O[C@H](C)[C@@H](O[C@H]3C[C@@](C)(O)[C@@H](OC(=O)CC(C)C)[C@H](C)O3)[C@H](N(C)C)[C@H]2O)[C@@H](CC=O)C[C@@H](C)[C@@H](O[C@H]2CC[C@H](N(C)C)[C@@H](C)O2)/C=C/C=C/C[C@@H](C)OC(=O)C[C@H]1O` [isovalerylspiramycin I], in data set [2], the “activation of PI3K protein, 4EBP1 protein, mTOR protein” value (“activation of PI3K protein” below) is “inhibit the protein activation of the PI3K/AKT/mTOR signaling pathway”. Besides, the “expression of Akt protein and S6K1 protein and of their activated proteins” value (“expression” below) in data set [2] was “inhibit expression of Akt protein and S6K1 protein and expression of their activated proteins”. The “inhibitory effects on AKT, S6K1 and 4EBP1 compared with rapamycin” value in data set [2] (rapamycin 20 μg/ml as control drug) is “more excellent inhibitory effects on AKT, S6K1 and 4EBP1”. The “inhibition of tumor growth in vivo” value in data set [3] and in data set [4] was “obvious inhibiting effects” throughout.

In the case of `CCC(=O)O[C@@H]1CC(=O)O[C@H](C)C/C=C/C=C/[C@H](O[C@H]2CC[C@H](N(C)C)[C@@H](C)O2)[C@H](C)C[C@H](CC=O)[C@H](O[C@@H]2O[C@H](C)[C@@H](O[C@H]3C[C@@](C)(O)[C@@H](OC(=O)CC(C)C)[C@H](C)O3)[C@H](N(C)C)[C@H]2O)[C@H]1OC` [isovalerylspiramycin III], in data set [2], the “activation of PI3K protein” value was “inhibit the activation of PI3K protein, 4EBP1 protein and mTOR protein”; the “expression” value is “inhibit the expression of AKT protein and S6K1 protein and the expression of their activated proteins”.

With isovalerylspiramycin II, in data set [2], the “activation of PI3K protein” value was “inhibit the activation of PI3K protein, 4EBP1 protein and mTOR protein”; the “expression” value is “inhibit the expression of AKT protein and S6K1 protein and the expression of their activated proteins”.

These data come from US20200405739A1, “MTOR INHIBITOR, PHARMACEUTICAL COMPOSITION AND USE THEREOF” (SHENYANG FUYANG PHARMACEUTICAL TECHNOLOGY CO., LTD., priority 2018, published 2020).
